Test results taken from patent US20070298444A1, “Methods and Compositions for Use in Evaluating and Treating Neoplastic Disease Conditions” (priority 2004, published 2007).

Experiments:
Type in all cases: cell-based, human
HBEC [1] = test: Nocodazole treatment and recovery of HBEC, immunofluorescence microscopy
Method: (§1) HBEC were grown to 70% confluency on 1 well-chambered coverglass (Lab-Tek II, Nunc, #1.5). For all experiments except the localization of LTB4DH and Hs.516830 to the centriole in D51 cells, which required a stringent wash prior to fixation, standard fixation conditions were used. For standard conditions, culture media was removed and the cells were fixed directly in PBS containing 3% formaldehyde for 20 minutes. For stringent conditions, cells were rinsed quickly in PHEM buffer (60 mM Pipes, 25 mM Hepes, 10 mM EGTA, 1 mM Mg-acetate, pH 6.9), lysed for 2 minutes in PHEM containing 0.5% Triton X100, and fixed in PHEM containing 3% formaldehyde for 20 minutes. All steps subsequent to cell fixation were identical. Cells were incubated with PBS containing 50 mM NH4Cl for 10 minutes, permeabilized in PBS containing 0.1% Triton X-100 at RT for 3 minutes, and blocked one hour in block buffer (PBS containing 0.75% BSA [GIBCO]). Primary antisera was diluted in block buffer to a final concentration of 1-10 ug/ml, depending on the antibody, and incubated with cells for 1.5 hours at room temperature. Conjugated secondary antibodies (diluted in block buffer to 2 ug/ml) were incubated for 45 minutes at room temperature. Phalloidin conjugated to rhodamine (Molecular Probes, 1 unit/ml final) was included during secondary antibody incubation where indicated in the figure legend. DNA was stained with 300 nM DAPI (Molecular Probes) in PBS for 5 minutes, and the cells were mounted in Prolong Antifade (Molecular Probes). Wide-field fluorescence microscopy (DeltaVision, Applied Precision) and subsequent deconvolution was used for all images that dealt with fixed cells. A 0.2-micron z-plane was used throughout. Three-dimensional rendering of stacked images was done on Volocity 2.0 software (Improvision).
(§2) Primary cell cultures of human bronchial epithelial cells (HBEC) were purchased commercially (Cambrex, no retinoic acid) from two male donors and grown in BEGM medium (Cambrex) according to specifications. […]

HBEC [2] = test: Paclitaxel treatment of HBEC, immunofluorescence microscopy
Method: as §1, §2

[3] = tested on: MCF10A breast epithelial cells; test: Paclitaxel treatment of MCF10A, immunofluorescence microscopy; conditions: 1 uM paclitaxel, 9 hours

Row | Compound | presence of ribbon-like structure (HBEC [1]; nocodazole 20 minute exposure) | effect on cytoplasmic microtubules (HBEC [1]; nocodazole 20 minute exposure, alpha-tubulin antisera) | effect on actin fibers (HBEC [1]; nocodazole treatment then 20 minute recovery, phalloidin-rhodamine) | formation of ribbon-like structure (HBEC [2]; HBEC treated with paclitaxel versus absence of paclitaxel, antisera to OKL38, LTB4DH, RLA1, TRIM29) | increase in the number of mitotic figures (HBEC [2]; HBEC, 1 uM paclitaxel, 9 hours, DAPI stain of fixed cells) | mitotic spindle integrity based on microtubule localization (HBEC [2]; HBEC, 1 uM paclitaxel, 9 hours, alpha-tubulin immunofluorescence) | localization of ribbon-like structure [3]
1 | COC(=O)Nc1nc2ccc(C(=O)c3cccs3)cc2[nH]1 [nocodazole] | uncharacteristically absent | sufficient to eliminate cytoplasmic MT | unaffected |  |  |  | 
2 | CC(=O)O[C@H]1C(=O)[C@@]2(C)[C@H]([C@H](OC(=O)c3ccccc3)[C@]3(O)C[C@H](OC(=O)[C@H](O)[C@@H](NC(=O)c4ccccc4)c4ccccc4)C(C)=C1C3(C)C)[C@]1(OC(C)=O)CO[C@@H]1C[C@@H]2O [paclitaxel] |  |  |  | promotes the formation of a ribbon-like structure in close proximity to mitotic DNA | 10 fold | no indication of an intact mitotic spindle in any cell | localization of a ribbon-like structure in the vicinity of condensed, mitotic DNA
